Experimental data from article PMC5830615 (Scientific Reports, 2018).

How the values were obtained:
[1] = system: H188 (Epac1-based cAMP biosensor); experiment: FRET response of biosensor H188 to cAMP analogs and Epac inhibitors in HEK293-H188-C24 cells; assay type: cell-based; conditions: for Effect on ΔFRET measured in response to 8-pCPT-2′-O-Me-cAMP-AM: Epac inhibitor co-applied
Excerpt: H188 contains the cAMP sensor Epac1 in which the full-length protein is truncated to remove the Disheveled, Egl-10, and Pleckstrin (DEP) membrane-targeting domain so that its expression is confined largely to the cytoplasm (Fig. 2a,b)[30]. T781A and F782A mutations introduced within the CDC25 homology domain disrupt guanine nucleotide exchange factor (GEF) activity so that binding of cAMP to H188 is not linked to downstream signaling events mediated by the Epac1 effector protein Rap1 GTPase (Fig. 2a)[30]. In H188 the Epac1 backbone is flanked by an mTurquoise2Δ FRET donor chromophore at the N-terminus, and tandem cp173 Venus-Venus FRET acceptor chromophores at the C-terminus (Fig. 2a). Binding of cAMP reduces FRET so that when exciting with 440 nm light, there is an increase of 485 nm (mTuquoise2Δ) and a decrease of 535 nm (cp173 Venus-Venus) emission fluorescence. This ΔFRET is measured as an increase of the 485/535 nm FRET ratio.
HEK293-H188-C24 cells stably expressing H188 were plated at 80% confluence on 96-well clear-bottom assay plates (Costar 3904, Corning, NY) coated with rat tail collagen (Collaborative Biomedical Products, Bedford, MA). HEK293 cells stably expressing select GPCRs were transduced for 16 hours with H188 virus at a density of ca. 60,000 cells/well under conditions in which the multiplicity of infection (m.o.i.) was equivalent to 25 viral particles per cell. For all assays, the culture media was then removed and replaced by 200 μl/well of a standard extracellular saline (SES) solution supplemented with 11 mM glucose and 0.1% BSA[31],[34]–[36]. The composition of the SES was (in mM): 138 NaCl, 5.6 KCl, 2.6 CaCl2, 1.2 MgCl2, 11.1 glucose, and 10 Hepes (295 mOsmol, pH 7.4). Real-time kinetic assays of FRET were performed using a FlexStation 3 microplate reader equipped with monochromators (Molecular Devices, Sunnyvale, CA). Excitation light was delivered at 435/9 nm (455 nm cut-off), and emitted light was detected at 485/15 nm (CFP) or 535/15 nm (YFP)[31],[34]–[36]. The emission intensities were the averages of 12 excitation flashes for each time point per well. Test solutions dissolved in SES were placed in V-bottom 96-well plates (Greiner Bio-One, Monroe, NC), and an automated pipetting procedure was used to transfer 50 μl of each test solution to each well of the assay plate containing monolayers of these cells. The 485/535 emission ratio was calculated for each well and the mean +/− s.d. values for 12 wells were averaged. To facilitate comparisons amongst different experiments, these FRET ratio values were normalized using baseline subtraction so that a y-axis value of 1 corresponds to the initial baseline FRET ratio, whereas a value of 2 corresponds to a doubling of the FRET ratio. The time course of the ΔFRET ratio was plotted after exporting data to Origin 8.0 (OriginLab, Northampton, MA). Origin 8.0 was also used for generation of Hill plots describing dose-response relationships.

human NPY2R = target: T1, human NPY2R (Homo sapiens, UniProt P49146); experiment: FRET assay, inhibition of adenosine-stimulated cAMP production in HEK293-H188-C24 cells transfected with human NPY2R; assay type: cell-based; conditions: BIIE0246 300 nM; adenosine 2 μM
T1 construct: 3xHA (own knowledge: 'TN' in the cDNA Resource Center clone ID denotes an N-terminal 3xHA tag); host or cells: HEK293-H188-C24 (transient transfection, pcDNA3.1)
T1 sequence (P49146 1-381): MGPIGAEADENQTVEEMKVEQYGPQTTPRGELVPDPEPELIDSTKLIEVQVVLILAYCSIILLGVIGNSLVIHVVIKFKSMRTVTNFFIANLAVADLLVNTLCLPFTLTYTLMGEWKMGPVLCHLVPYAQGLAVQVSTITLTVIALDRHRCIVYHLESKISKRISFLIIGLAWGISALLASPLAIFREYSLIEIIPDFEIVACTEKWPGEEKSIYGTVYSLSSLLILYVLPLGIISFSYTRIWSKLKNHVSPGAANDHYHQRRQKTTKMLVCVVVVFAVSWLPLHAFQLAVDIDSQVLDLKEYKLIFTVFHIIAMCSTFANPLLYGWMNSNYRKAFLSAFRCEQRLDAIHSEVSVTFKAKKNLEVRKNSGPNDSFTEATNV
Method: (§1) Transient transfections were performed using Lipofectamine and Plus Reagent (Thermo Fisher) using methodology described previously by our laboratory for HEK293 cells. […] Plasmid encoding human NPY2R (I.D. NPYR20TN00) in pcDNA3.1 was from the University of Missouri-Rolla cDNA Resource Center (Rolla, MO). Individual clones of HEK293 cells stably expressing select FRET reporters were obtained by G418 antibiotic resistance selection, as described previously. Adenovirus for transduction of HEK293 cells with H188 was generated by a commercial vendor (ViraQuest, North Liberty, IA) using the shuttle vector pVQAd CMV K-NpA and the H188 plasmid originally created by Klarenbeek and co-workers[30].
(§2) HEK293-H188-C24 cells stably expressing H188 were plated at 80% confluence on 96-well clear-bottom assay plates (Costar 3904, Corning, NY) coated with rat tail collagen (Collaborative Biomedical Products, Bedford, MA). […] Real-time kinetic assays of FRET were performed using a FlexStation 3 microplate reader equipped with monochromators (Molecular Devices, Sunnyvale, CA). Excitation light was delivered at 435/9 nm (455 nm cut-off), and emitted light was detected at 485/15 nm (CFP) or 535/15 nm (YFP)[31],[34]–[36]. […]

human GLP-1R = experiment: FRET cAMP assay in HEK293-GLP-1R cells (stable human GLP-1R) virally transduced with H188; assay type: cell-based; conditions: HEK293-GLP-1R cells transduced with H188
Method: (§3) HEK293-H188-C24 cells stably expressing H188 were plated at 80% confluence on 96-well clear-bottom assay plates (Costar 3904, Corning, NY) coated with rat tail collagen (Collaborative Biomedical Products, Bedford, MA). HEK293 cells stably expressing select GPCRs were transduced for 16 hours with H188 virus at a density of ca. 60,000 cells/well under conditions in which the multiplicity of infection (m.o.i.) was equivalent to 25 viral particles per cell. For all assays, the culture media was then removed and replaced by 200 μl/well of a standard extracellular saline (SES) solution supplemented with 11 mM glucose and 0.1% BSA[31],[34]–[36]. The composition of the SES was (in mM): 138 NaCl, 5.6 KCl, 2.6 CaCl2, 1.2 MgCl2, 11.1 glucose, and 10 Hepes (295 mOsmol, pH 7.4). Real-time kinetic assays of FRET were performed using a FlexStation 3 microplate reader equipped with monochromators (Molecular Devices, Sunnyvale, CA). Excitation light was delivered at 435/9 nm (455 nm cut-off), and emitted light was detected at 485/15 nm (CFP) or 535/15 nm (YFP)[31],[34]–[36]. The emission intensities were the averages of 12 excitation flashes for each time point per well.

wild-type HEK293 cells = experiment: FRET cAMP assay in wild-type HEK293 cells transduced with H188 (negative control); assay type: cell-based, human; conditions: WT HEK293 lacking recombinant receptors, H188 virus; IBMX at 50 μM
Method: as §3

[2] = system: HEK293-H188-C24 cells, empty vector (EV); experiment: FRET cAMP assay in HEK293-H188-C24 cells transfected with negative control empty vector; assay type: cell-based, human; conditions: GLP-1 and exendin-4 at 10 nM
Method: as §1, §2

adenosine A2B receptor = experiment: FRET cAMP assay, endogenous adenosine A2B receptors in untransfected HEK293-H188-C24 cells; assay type: cell-based, human; conditions: read-out: Kd for antagonist action versus adenosine; versus 4 μM adenosine
Method: HEK293 cells stably expressing select GPCRs were transduced for 16 hours with H188 virus at a density of ca. 60,000 cells/well under conditions in which the multiplicity of infection (m.o.i.) was equivalent to 25 viral particles per cell. For all assays, the culture media was then removed and replaced by 200 μl/well of a standard extracellular saline (SES) solution supplemented with 11 mM glucose and 0.1% BSA[31],[34]–[36]. […] Real-time kinetic assays of FRET were performed using a FlexStation 3 microplate reader equipped with monochromators (Molecular Devices, Sunnyvale, CA). […] The emission intensities were the averages of 12 excitation flashes for each time point per well.

Compound: CC(=O)Oc1ccc(CO)cc1 [4-Abn-OH, 4-acetoxybenzyl alcohol]
- Effect on ΔFRET measured in response to forskolin [1]: not blocked

Compound: N=C(N)NCCC[C@H](NC(=O)CC1(CC(=O)N2CCN(C3c4ccccc4NC(=O)c4ccccc43)CC2)CCCC1)C(=O)NCCn1c(=O)n(-c2ccccc2)n(-c2ccccc2)c1=O (stereo partly shown) [BIIE0246]
- Effect on inhibitory actions of EP45 (1,000 nM) and PYY(3–36) (300 nM) (human NPY2R): reduced the inhibitory actions

Compound: CC1CCc2c(cc(Br)c(F)c2Br)N1C=O (stereo not shown) [CE3F4]
- Effect on baseline FRET ratio when administered alone [1]: unaffected
- Effect on ΔFRET measured in response to 8-pCPT-2′-O-Me-cAMP-AM [1]: reduced

Compound: Nc1ncnc2c1ncn2[C@H]1CC[C@@H](CO)O1 [DDA]
- Effect on the cAMP-elevating action of GLP-1 (human GLP-1R): suppressed the action of GLP-1

Compound: Cc1ccc(S(=O)(=O)c2c(C)cc(C)cc2C)cc1 [ESI-05]
- Effect on baseline FRET ratio when administered alone [1]: unaffected
- Effect on ΔFRET measured in response to 8-pCPT-2′-O-Me-cAMP-AM [1]: without effect

Compound: CC[C@H](C)[C@H](NC(=O)[C@H](Cc1ccccc1)NC(=O)[C@H](CCC(=O)O)NC(=O)[C@H](CCCCN)NC(=O)[C@H](C)NC(=O)[C@H](C)NC(=O)[C@H](CCC(N)=O)NC(=O)CNC(=O)[C@H](CCC(=O)O)NC(=O)[C@H](CC(C)C)NC(=O)[C@H](Cc1ccc(O)cc1)NC(=O)[C@H](CO)NC(=O)[C@H](CO)NC(=O)[C@@H](NC(=O)[C@H](CC(=O)O)NC(=O)[C@H](CO)NC(=O)[C@@H](NC(=O)[C@H](Cc1ccccc1)NC(=O)[C@@H](NC(=O)CNC(=O)[C@H](CCC(=O)O)NC(=O)[C@H](C)NC(=O)[C@@H](N)Cc1c[nH]cn1)[C@@H](C)O)[C@@H](C)O)C(C)C)C(=O)N[C@@H](C)C(=O)N[C@@H](Cc1c[nH]c2ccccc12)C(=O)N[C@@H](CC(C)C)C(=O)N[C@H](C(=O)N[C@@H](CCCCN)C(=O)NCC(=O)N[C@@H](CCCNC(=N)N)C(N)=O)C(C)C [GLP-1, glucagon-like peptide-1]
- Effect on levels of cAMP in wild-type HEK293 cells (wild-type HEK293 cells): no such effect
- Effect on levels of cAMP in empty vector cells [2]: without effect

Compound: CCCn1c(=O)c2[nH]c(-c3cnn(Cc4cccc(C(F)(F)F)c4)c3)nc2n(CC)c1=O [GS6201]
- Kd (adenosine A2B receptor): 163 nM
